The text below walks through data of PMC6468747 (Cancers, 2019).

Read-outs that look alike come from different tables or passages of the source.

The subject of data set [1] is panel of 6 human TNBC cell lines. Kind of data set: MTT cell growth assay, summary over the panel. Particulars: 7 days. The class given is cell-based. How it is done: Figure 3 In vitro characterization, pharmacokinetics and toxicity profile of VNLG-152R and its two enantiomers. (A) HPLC chromatograms racemic VNLG-152R (left panel) and the resolved enantiomers VNLG-152E1 and VNLG-152E2 (right panel). The conditions of HPLC procedure are presented in Supplementary Materials. (B) Table summarizing GI50 values (µM) each cell line treated with VNLG-152R and its enantiomers. TNBC cell subtypes were treated with listed compound (0.1 nmol/L–100 µmol/L) for 7 days and the GI50 values for the anti-proliferative effects of the compounds were determined from dose response curves (by a nonlinear regression analysis using Graph Pad Prism). Data represents the results from six independent experiments for each cell line. (C) Plasma concentration versus time profile after intravenous (IV, 2 mg/kg each, top panel) or oral (PO, 20 mg/kg each, bottom panel) of VNLG-152R (red), VNLG-152E1 (purple) and VNLG-152E2 (blue) to female CD1 mice. Values represent the mean plasma concentrations from three mice per time point. (D) Table of the pharmacokinetic parameters of various compounds after IV and PO dosing. AUC = area under the curve, T1/2 = elimination half-life, Cmax = maximum plasma concentration, F (%) = oral bioavailability. (E) Effects of VNLG-152R, VNLG-152E1 and VNLG-152E2 on body weight and clinical observations at chronic dose termination of study. Three different doses, i.e., 10, 25, and 50 mg/kg/day (formulated in 40% β-cyclodextrin in saline) of each compound were administered daily by oral gavage for 14 days. Each group consisted of three mice. Loss in body weight, a clinical sign of toxicity was observed during the 14 days of dosing and the maximum tolerated dose (MTD) was estimated following established procedures. Changes in body weight were scored on a scale of 0–4 as follows as described under methods. […]

Data set [2] in a line: Plasma pharmacokinetics after single IV and PO dosing. The class given is in vivo, female CD1 mice. The note with it: mouse, in vivo. The procedure: 5. In vivo Pharmacokinetics (PK) Determination: These studies were Performed by Charles River Laboratories (CRL), Discovery Services, 251 Ballardvale Street, Wilmington, MA 01887, USA.
The PK studies were performed according to the guidelines and approval of CRL Institutional Animal Care and Use Committee (IACUC) under IACUC approval no: P04172013.
A total of sixty‐four naïve female CD‐1 mice (including 6 spare animals) were received from Charles River Laboratories, Kingston, NY. Following an acclimation period, the animals were assigned to the study based on acceptable health as determined by a staff veterinarian. For dosing, animals were placed into six groups as detailed in the study design table below. All animals were fasted overnight prior to dosing and food was returned after the 4‐h post‐dose blood collections.
Each animal in Groups 1, 3 and 5 received a single administration of prepared test article by intravenous tail administration at a target dose level of 2 mg/kg and dose volume of 10 mL/kg. Each animal in Groups 2, 4 and 6 received a single administration of prepared test article by oral gavage at a target dose level of 20 mg/kg and at a dose volume of 10 mL/kg. Dosing was performed on August 13, 2015 as detailed in the study protocol and was completed without incident. Dose administration […]
Following dosing and at each sample collection time
Group Mices Test Compound Level Conc. Volume Dose Vehicle Route […]
Interim blood samples were collected in a leapfrog design from each animal by puncture of a submandibular vein and a terminal blood sample was collected from each animal by intracardiac puncture following euthanasia with CO2 as outlined in the sample collection table below.
All blood samples were transferred into tubes containing K2EDTA anticoagulant and placed on wet ice immediately after collection until centrifuged at 2200 × g for 10 min at […] to isolate plasma.
The resulting plasma was transferred to individual polypropylene tubes in a 96‐well plate format and immediately placed on dry ice until storage at nominally […] before transfer to the Test Facility’s bioanalysis group for concentration and HPLC analysis. Individual blood collection times are […]
Table S4. Sample Collections.
Collection Information Whole Blood for Plasma Whole Blood for Plasma
Subgroup A (n = 3) 5 min & 1 h post‐dose 8 h post‐dose
Subgroup B (n = 3) 15 min & 4 h post‐dose 12 h post‐dose
Subgroup C (n = 3) 30 min & 6 h post‐dose 24 h post‐dose
Subgroup D (n = 2) Not applicable 2 h post‐dose
Subgroup A (n = 3) 15 min & 2 h post‐dose 8 h post‐dose
Subgroup B (n = 3) 30 min & 4 h post‐dose 12 h post‐dose
Subgroup C (n = 3) 1 hr & 6 h post‐dose 24 h post‐dose
Collection conditions K2EDTA K2EDTA
Collection route Submandibular Intracardiac puncture
Volume/Time point 100 μL Maximum volume
The plasma samples for Groups 1‐6, Subgroups A‐C were analyzed for test article concentration using a Research Grade LC MS/MS Assay (RGA‐Level 1). The bioanalytical report, including plasma […]
Pharmacokinetic parameters were estimated from the plasma concentration‐time data using standard non‐compartmental methods and utilizing suitable analysis software (Watson 7.2 Bioanalytical LIMS, Thermo Electron Corp). Parameters were estimated using nominal sampling times relative to the start of each dose administration (within an acceptable tolerance limit).
Concentrations below the limit of quantification were excluded from the pharmacokinetic analysis.
The area under the plasma test item concentration versus time curve (AUC) was calculated using the linear‐log‐linear trapezoidal method. When practical, the terminal elimination phase of each concentration versus time curve was identified using at least the final three observed concentration values. The slope of the terminal elimination phase was determined using log linear regression on the unweighted concentration data.
Parameter Description of Parameter […]

Data set [3] in a line: 14-day oral toxicity / MTD study. Details: species or system female athymic nude mice. Particulars: mouse, in vivo, po. How it is done: Three different doses, i.e., 10, 25, and 50 mg/kg/day (formulated in 40% β-cyclodextrin in saline) of each compound were administered daily by oral gavage for 14 days. Each group consisted of 3 mice. Their body weight kinetics (loss in body weight, a clinical sign of toxicity) was observed during the 14 days of dosing following established procedures. Changes in body weight were scored on a scale of 0–4 as follows: (1) Weight loss: (10 g = 4, 7–9 g = 3, 4–6 g = 2, 1–3 g = 1; severe = 3, moderate = 2, slight = 1, none = 0).

The subject of data set [4] is MDA-MB-231 xenografts. The experiment in a line: MDA-MB-231 xenograft, racemate vs enantiomers, IP vs PO. Format: in vivo, nude mice. The note with it: 20 mg/kg per day PO, 36 days. How it is done: The second experiment designed to compare heal-to-head IP versus oral dosing (PO) and the efficacy of racemic VNLG-152 versus its two enantiomers was like that described above but consisted of eight groups. When the tumor volumes had reached about 100 mm^3, the mice were randomly divided into 8 groups of 5 mice each. The two control groups received vehicle (IP or OP) and the other six groups received VNLG-152R (20 mg/kg, IP or PO, once daily), VNLG-152E1 (20 mg/kg, IP or PO, once daily), and VNLG-152E2 (20 mg/kg, IP or PO, once daily) five days/week. These treatments continued for 36 days and the tumors were measured and processed as described above.

For data set [5], the system named is Br-001 xenograft tumors. The experiment in a line: Patient-derived TNBC xenograft (PDX), PO, racemate vs E1. Format: in vivo, NSG mice. The note with it: 20 mg/kg PO. The procedure:
The second PDX tumor model experiment was conducted to assess the efficacy of VNLG-152R versus VNLG-152E1 following PO administration. When the tumor volumes had reached about 100 mm^3, the mice were randomly divided into three groups of five mice each. The control group received vehicle (PO) and the other two groups received VNLG-152R (20 mg/kg, PO, once daily), and VNLG-152E1 (20 mg/kg, PO, once daily) five days/week. These treatments continued for 15 days and the tumors were measured and processed as described above.
Background: Xenograft models place foreign cells or tissue in a host animal.

The target of data set [6] is T1, Mnk1 (Homo sapiens, UniProt Q9BUB5).
T1 construct: incubated with recombinant full length Mnk1 proteins or cell lysates overnight at 4 °C; GST
T1 sequence (Q9BUB5 whole entry): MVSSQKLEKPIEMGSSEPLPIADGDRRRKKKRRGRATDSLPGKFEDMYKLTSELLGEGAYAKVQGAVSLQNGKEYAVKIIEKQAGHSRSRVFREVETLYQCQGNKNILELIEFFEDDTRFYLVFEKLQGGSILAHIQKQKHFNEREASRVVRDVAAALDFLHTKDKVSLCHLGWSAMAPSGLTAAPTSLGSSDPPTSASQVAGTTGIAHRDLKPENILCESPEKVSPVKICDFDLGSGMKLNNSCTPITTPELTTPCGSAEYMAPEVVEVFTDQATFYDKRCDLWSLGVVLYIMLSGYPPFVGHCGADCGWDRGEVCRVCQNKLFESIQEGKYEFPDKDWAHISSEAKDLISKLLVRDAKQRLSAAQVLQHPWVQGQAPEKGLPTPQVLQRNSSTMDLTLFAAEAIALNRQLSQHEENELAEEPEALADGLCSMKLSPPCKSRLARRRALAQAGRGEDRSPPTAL
Kind of data set: Streptavidin-agarose pull-down with biotinylated VNLG-152R. Format: binding. Particulars: 50 µg. How it is done: The streptavidin–agarose pull-down assay was performed as described previously. Biotin-VNLG-152R (50 µg) and biotin (50 µg; negative control) were preincubated with streptavidin agarose beads (Invitrogen, Waltham, MA, USA) overnight at 4 °C. The biotin-VNLG-152R-conjugated beads were washed three times with cold PBS and then incubated with recombinant full length Mnk1 proteins or cell lysates overnight at 4 °C. The bead-bound proteins were incubated and separated on a 10% SDS-PAGE and detected by western blot analysis for Mnk1.

In data set [7] the test system is MDA-MB-231 cells. The experiment in a line: Head-to-head MTT antiproliferative assay, 6-day exposure. The class given is cell-based, human. Particulars: Homo sapiens, MDA-MB-231, 144 h. How it is done: (§1) Figure 2 VNLG-152R inhibits mTORC1 signaling and the production of pro-inflammatory cytokines. (A) MDA-MB-231 and MDA-MB-468 cells were treated with the indicated concentrations of VNLG-152R for 72 h. Cell lysates were analyzed by immunoblotting with the indicated antibodies. (B) Head-to-head antiproliferative effects of VNLG-152R and eFT508 on MDA-MB-231 and MDA-MB-468 cells. The dose-response curves were generated from MTT assays after 6-day exposure to different concentrations of the compounds. Each point is a mean of replicates from three independent experiments. (C–E) MDA-MB-231 cell were treated with the indicated concentration of VNLG-152R or eFT508 for 72 h. Cell supernatants were collected, and the indicated cytokines were quantitated by Multiplex Luminex assay.
(§2) Cell growth inhibition assay was performed as described previously. For cell growth experiment, cells were treated with the VNLG-152R, VNLG-152E1 or VNLG-15E2 for 7 days. MTT assay was performed at the end of the experiment. Results represent the mean ± standard deviation of three independent experiments.

Data set [8] relates to MDA-MB-468 cells. The description is as above. Format: cell-based, human. Particulars: Homo sapiens, MDA-MB-468, 144 h. How it is done:
as §1, §2

For data set [9], the system named is MDA-MB-231 cells. Kind of data set: Multiplex Luminex supernatant cytokine analysis. Format: cell-based, human. Particulars: 72 h, cell supernatants. The procedure:
Supernatants from the MDA-MB-231 (TNBC) cells in Fetal Bovine Serum (FBS) containing media were treated with various concentrations of VNLG-12R for 72 h, were collected, and various cytokines and growth factor concentrations (CLCX-1, IL-6, IL8 and TNF-α) were determined by Luminex multiplex assay kit (Millipore, Billerica, MA, USA) according to the manufacturer’s instructions. The expressions of secreted cytokines were read on Luminex 100 reader. The data was then analyzed using the BioPlex Software (BioRad, Hercules, CA, USA). The Luminex multiplex assays were conducted at the University of Maryland School of Medicine Cytokine Core Laboratory (Baltimore, MD, USA).

Setting [10] is: mean over 6 TNBC cell lines, read-out: average GI50.
The mark [11] stands for this setting: range over 6 TNBC cell lines, read-out: range of GI50.

For the compound `CC1=C(/C=C/C(C)=C/C=C/C(C)=C/C(=O)Nc2ccc(F)cc2)C(C)(C)CCC1n1ccnc1` (single isomer, unassigned) [VNLG-152E1], the 50% growth inhibitory concentration (GI50) – broadly, the concentration that inhibits growth by half – in data set [1] (setting [10]) was 2300 nM; in data set [1] (setting [11]) it was 980 to 4790 nM. The “F (%) oral bioavailability” value in [2] is 161.9%. The AUC(0-inf) (usually the area under the concentration-time curve extrapolated to infinity) in [2] (iv, 2 mg/kg) came out at 2100 ng·h/mL; in [2] (po, 20 mg/kg) it was 34000 ng·h/mL. Besides, the T1/2 was 1.78 h in data set [2] (iv, 2 mg/kg) and 4.49 h in data set [2] (po, 20 mg/kg). For the same compound, the Cmax (in general, the peak of the concentration-time curve) in [2] (po, 20 mg/kg) is 4880 ng/mL. Moreover, the “maximum tolerated dose (MTD)” value in data set [3] is above 50 mg/kg. Also, the TGI (in general, the reduction of tumour growth relative to the control group) in data set [4] is recorded as 78%; in [5] (5 days per week, 15 days), 79%. Moreover, the “changes in body weights” value in [5] is “No changes in body weights were observed”.
As to `CC1=C(/C=C/C(C)=C/C=C/C(C)=C/C(=O)Nc2ccc(F)cc2)C(C)(C)CCC1n1ccnc1` (single isomer, unassigned) [VNLG-152E2], the GI50 in data set [1] (setting [10]) is 390 nM. The 50% growth inhibitory concentration (GI50) in data set [1] (setting [11]) fell in the range of 100 to 1170 nM. For the same compound, the “F (%) oral bioavailability” value in [2] came to 72.8%. Also, in data set [2] (iv, 2 mg/kg), the “AUC(0-inf)” value came to 1840 ng·h/mL and the T1/2 worked out at 1.10 h. Besides, in [2] (po, 20 mg/kg), the “AUC(0-inf)” value turned out to be 13400 ng·h/mL, the Cmax amounted to 3590 ng/mL and the T1/2 is 4.02 h. For the same compound, the “maximum tolerated dose (MTD)” value in [3] is given as above 50 mg/kg.
Turning to `CC1=C(/C=C/C(C)=C/C=C/C(C)=C/C(=O)N(CCOC(=O)CCCC[C@@H]2SC[C@@H]3NC(=O)N[C@@H]32)c2ccc(F)cc2)C(C)(C)CCC1n1ccnc1` (stereo partly drawn) [VNLG-152R-biotin], the entries for the “Mnk1 captured in streptavidin pull-down” value in data set [6] (MDA-MB-231 cells) and in data set [6] (recombinant Mnk1 protein) were “direct binding of Mnk1 to VNLG-152R-biotin in MDA-MB-231 cells” and “substantial amounts of Mnk1 was found only in the VNLG-152R-biotin-treated sample”, respectively.
Consider `Cc1cc(Nc2cc(N)ncn2)c(=O)n2c1C(=O)NC21CCCCC1.Cl` [eFT508, 6′-[(6-aminopyrimidin-4-yl)amino]-8′-methyl-2′Hspiro[cyclohexane-1,3′-imidazo-[1,5-a]pyridine]-1′,5′-dione hydrochloride (1:1), reference compound], for which the GI50 is 7070 nM in [7] and 52500 nM in [8]. The “secreted IL-6 and IL-8, TNFα and chemokine CXCL1” value in data set [9] is on record as “dose-dependent reduction”. Besides, the “secretion of CXCL1” value in [9] is on record as “seem to stimulate secretion of CXCL1”.
